SMILES strings stand for the structures. Values after ≈ are worked out from the molar mass of the structure shown. Like-named read-outs stand apart in the source and are kept apart here.

Here are results for twelve compounds from patent publication US8772286B2, “MK2 inhibitors” (Merck Sharp & Dohme B.V., priority 2009, dated 2014).

One series deals with T1, MK2 enzyme (Homo sapiens, UniProt P49137).
T1 construct: MK2 enzyme (active enzyme (peptide 46-end (Millipore))); purchased Millipore
The series is described as follows: MK2 enzyme activity, IMAP fluorescence polarization assay. Type of series: biochemical. The note with it: MK2 IMAP assay. In outline: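 Enzyme kept in KR buffer (10 mM Tris-HCl, 10 mM MgCl2, 0.01% Tween-20, 2 mM DTT, pH 7.2) and acting on a fluorescein-labeled peptide substrate; final compound range 10 μM to 0.316 nM. After 60 min at room temperature, FP at 535 nm was read. Signal as percent of the with/without-ATP control difference, and EC50 by curve fit.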

Series [1] in a line: Solubility determination of MK2 inhibitors (kinetic aqueous solubility, UPLC). Type of series: physicochemical. The note with it: aqueous buffer (system solution from pION inc.), 22 °C, pH 7.4, aqueous buffer, kinetic from dmso stock. In short, it runs like this:
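Kinetic shake-flask solubility (mg/L) at pH 7.4, room temperature (21-23° C.), 1% final DMSO from 10 mM DMSO stock, duplicates. Shaken 24 h, filtered (0.45 um), 1-propanol added to filtrate; dissolved compound quantified by UPLC-UV against external DMSO calibration line of the same compound.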

Where [2] appears, read: 1 μM ATP, 30 min pre-incubation, 2 h room temperature, read-out: pEC50 value (converted).
The mark [3] stands for this setting: pH 7.4, room temperature, about 1% DMSO, 24 h shaking, read-out: solubility.

T1 sequence (P49137 46-400 limits assumed): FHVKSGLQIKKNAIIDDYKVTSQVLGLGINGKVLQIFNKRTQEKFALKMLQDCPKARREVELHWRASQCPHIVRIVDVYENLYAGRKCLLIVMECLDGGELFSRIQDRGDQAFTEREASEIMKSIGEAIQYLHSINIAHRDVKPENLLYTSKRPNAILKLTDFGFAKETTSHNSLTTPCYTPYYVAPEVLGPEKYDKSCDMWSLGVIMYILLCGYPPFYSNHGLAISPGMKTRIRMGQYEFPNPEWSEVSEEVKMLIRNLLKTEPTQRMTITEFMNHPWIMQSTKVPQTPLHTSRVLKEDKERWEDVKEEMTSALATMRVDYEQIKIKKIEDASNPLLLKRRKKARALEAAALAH

On to `O=C1NCC2(CCNCC2)c2[nH]c(-c3ccnc(-c4ccc5oc6ccccc6c5c4)n3)cc21` [1—26, 2′-(2-(dibenzo[b,d]furan-2-yl)pyrimidin-4-yl)-5′,6′-dihydrospiro[piperidine-4,7′-pyrrolo[3,2-c]pyridin]-4′(1′H)-one], for which the EC50 on MK2 enzyme (setting [2]) is 31.6 to 316 nM. In addition, in series [1] (setting [3]), the solubility at 24 h fell in the range of 20 to 50 mg/L (≈ 44.5 to 111 µM).
On to `O=C(NC1CCCCC1)c1ccc(-c2nccc(-c3cc4c([nH]3)C3(CCNCC3)CNC4=O)n2)cc1Cl` [1—31, 2-chloro-N-cyclohexyl-4-(4-(4′-oxo-1′,4′,5′,6′-tetrahydrospiro[piperidine-4,7′-pyrrolo[3,2-c]pyridine]-2′-yl)pyrimidin-2-yl)benzamide], for which the EC50 at MK2 enzyme (setting [2]) was 3.16 to 31.6 nM. The solubility at 24 h in series [1] (setting [3]) was ≥ 50 mg/L.
On the same counts, the results for `NCC(=O)N1CCC2(CC1)CNC(=O)c1cc(-c3ccnc(-c4cc5ccccc5o4)n3)[nH]c12` [10—1, 1-(2-aminoacetyl)-2′-(2-(benzofuran-2-yl)pyrimidin-4-yl)-5′,6′-dihydrospiro[piperidine-4,7′-pyrrolo[3,2-c]pyridin]-4′(1′H)-one] are 31.6 to 316 nM and ≥ 50 mg/L.
Turning to `NCCN1CCC2(CC1)CNC(=O)c1cc(-c3ccnc(-c4cc5ccccc5o4)n3)[nH]c12` [Example 2—3, 1-(2-aminoethyl)-2′-(2-(benzofuran-2-yl)pyrimidin-4-yl)-5′,6′-dihydrospiro[piperidine-4,7′-pyrrolo[3,2-c]pyridin]-4′(1′H)-one], the EC50 on MK2 enzyme (setting [2]) was 31.6 to 316 nM. Also, the solubility at 24 h in series [1] (setting [3]) was ≥ 50 mg/L.
As to `O=C1NCC2(CCNCC2)c2[nH]c(-c3ccnc(-c4cccc(F)c4)n3)cc21` [16_3 Formula (I)], the EC50 on MK2 enzyme (Table 1, compound of Formula (I) with spiro ring, read-out: pEC50, Formula (I) (converted)) is 7.94 nM. The solubility at 24 h in series [1] (Table 1, compound of Formula (I) with spiro ring, pH 7.4, read-out: Solubility pH 7.4 (mg/L), Formula (I)) came to 36 mg/L.
Consider `O=C1NCC2(CCNCC2)c2[nH]c(-c3ccnc(-c4cnc5ccccc5c4)n3)cc21` [17_2 Formula (I)], for which the “pEC50, Formula (I)” value at MK2 enzyme (Table 2, compound of Formula (I) with amine-containing spiro ring) amounted to 8.2. Also, the solubility at 24 h in series [1] (Table 2, compound of Formula (I) with amine-containing spiro ring, pH 7.4, read-out: Solubility pH 7.4 (mg/L), Formula (I)) was determined as 23 mg/L.
In the case of `O=C1NCC2(CCNCC2)c2[nH]c(-c3ccnc(-c4cc5ccccc5s4)n3)cc21` [1—28, 2′-(2-(benzo[b]thiophen-2-yl)pyrimidin-4-yl)-5′,6′-dihydrospiro[piperidine-4,7′-pyrrolo[3,2-c]pyridin]-4′(1′H)-one], on MK2 enzyme (setting [2]), the EC50 was 3.16 to 31.6 nM. In series [1] (setting [3]), the solubility at 24 h was ≥ 50 mg/L.
Taken in the same sequence, the figures for `Nc1ncc(-c2nccc(-c3cc4c([nH]3)C3(CCNCC3)CNC4=O)n2)cn1` [1—2, 2′-(2′-amino-2,5′-bipyrimidin-4-yl)-5′,6′-dihydrospiro[piperidine-4,7′-pyrrolo[3,2-c]pyridin]-4′(1′H)-one] were ≤ 3.16 nM and 20 to 50 mg/L (≈ 53.1 to 133 µM).
For the compound `O=C1NCC2(CCNCC2)c2[nH]c(-c3ccnc(-c4ccc(-c5ccccc5)cc4)n3)cc21` [1—12, 2′-(2-(biphenyl-4-yl)pyrimidin-4-yl)-5′,6′-dihydrospiro[piperidine-4,7′-pyrrolo[3,2-c]pyridin]-4′(1′H)-one], the EC50 at MK2 enzyme (setting [2]) was 3.16 to 31.6 nM. Moreover, the solubility at 24 h in series [1] (setting [3]) was 20 to 50 mg/L (≈ 45.9 to 115 µM).
`COc1cncc(-c2nccc(-c3cc4c([nH]3)C3(CCNCC3)CNC4=O)n2)c1` [1—3, 2′-(2-(5-methoxypyridin-3-yl)pyrimidin-4-yl)-5′,6′-dihydrospiro[piperidine-4,7′-pyrrolo[3,2-c]pyridin]-4′(1′H)-one]: the EC50 on MK2 enzyme (setting [2]) is 3.16 to 31.6 nM. The solubility at 24 h in series [1] (setting [3]) was 20 to 50 mg/L (≈ 51.2 to 128 µM).
With `O=C1NCC2(CCNCC2)c2[nH]c(-c3nc(-c4ccc(Cl)cc4F)ncc3F)cc21` [4—5, 2′-(2-(4-chloro-2-fluorophenyl)-5-fluoropyrimidin-4-yl)-5′,6′-dihydrospiro[piperidine-4,7′-pyrrolo[3,2-c]pyridin]-4′(1′H)-one], at MK2 enzyme (setting [2]), the EC50 is 3.16 to 31.6 nM. In addition, in series [1] (setting [3]), the solubility at 24 h is ≥ 50 mg/L.
Taken in the same sequence, the figures for `CC(C)COc1ccc(-c2nccc(-c3cc4c([nH]3)C3(CCNCC3)CNC4=O)n2)cc1` [1—27, 2′-(2-(4-isobutoxyphenyl)pyrimidin-4-yl)-5′,6′-dihydrospiro[piperidine-4,7′-pyrrolo[3,2-c]pyridin]-4′(1′H)-one] were 3.16 to 31.6 nM and ≥ 50 mg/L.
